For orientation: EC50 means the concentration giving half of the maximal effect.

Activity calls are given as the source filed them.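 How the source made its calls: active means mean EC50 of 20 µM or lower; inactive means the rest.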

The target of the assay is Neurotensin receptor type 2 (Homo sapiens) (UniProt O95665). Put plainly: NTR2 agonist activity for selectivity, SAR follow-up, selectivity assay for NTR1 agonist project, imaging, NTR2-U2OS cells, beta-arrestin GFP imaging (AID 588495). The conditions noted are these: image-based GFP translocation.
Neurotensin receptor type 2 (Homo sapiens), sequence (O95665 whole entry, looked up): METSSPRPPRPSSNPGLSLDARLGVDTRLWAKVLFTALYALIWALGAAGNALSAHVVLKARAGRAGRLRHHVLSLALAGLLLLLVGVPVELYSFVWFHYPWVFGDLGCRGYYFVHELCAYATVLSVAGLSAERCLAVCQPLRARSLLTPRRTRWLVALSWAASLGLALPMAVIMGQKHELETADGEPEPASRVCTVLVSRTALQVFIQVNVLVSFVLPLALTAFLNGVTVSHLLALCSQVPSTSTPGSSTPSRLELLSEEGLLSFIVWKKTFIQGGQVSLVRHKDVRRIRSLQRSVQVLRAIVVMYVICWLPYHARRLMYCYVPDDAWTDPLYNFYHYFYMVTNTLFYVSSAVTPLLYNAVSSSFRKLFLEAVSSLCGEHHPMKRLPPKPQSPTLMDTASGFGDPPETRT
For `CC(C)C[C@H](NC(=O)c1cn(-c2ccnc3cc(Cl)ccc23)c2ccccc12)C(=O)O`, the EC50 was > 40 µM (inactive).
For the compound `COc1cccc(N2CCN(c3nc(C4CCC4)nc4cc(OC)c(OC)cc34)CC2)c1`, the EC50 is > 40 µM (inactive).
`COc1ccc(Cn2c(SCc3ccc(C)cc3)nc3cc(OC)c(OC)cc3c2=N)cc1Cl`: the EC50 was > 40 µM (inactive).
Then `COc1cc2c3nnc(-c4ccc(C)c(C)c4)c-3cn(Cc3ccccc3)c2cc1OC`, with > 40 µM (inactive); and `Cc1ccc(-n2ncc3c(N4CCN(c5cc(C)ccc5C)CC4)ncnc32)c(C)c1`, with > 40 µM (inactive); and `c1ccc(N2CCN(c3ncnc4c3cnn4-c3ccccc3)CC2)cc1`, with > 40 µM (inactive).
In the case of `CC(C)C[C@H](NC(=O)c1cn(-c2ccncc2)c(-c2ccccc2)n1)C(=O)O` it was > 40 µM (inactive); in that of `COc1ccc(Cn2c(SCc3cc(C)ccc3C)nc3cc(OC)c(OC)cc3c2=N)cc1Cl`, > 40 µM (inactive); in that of `CCOc1cc2nc(-c3ccc(OC)c(OC)c3)nc(N3CCN(c4ccccc4F)CC3)c2cc1OC`, > 40 µM (inactive).
In the case of `COc1cc2nc(C3CCC3)nc(N3CCN(c4ccccc4OC)CC3)c2cc1OC` it was > 40 µM (inactive).
Turning to `COc1cccc(OC)c1-c1cc(C(=O)N[C@@H](CC(C)C)C(=O)O)nn1-c1ccnc2cc(Cl)ccc12`, the EC50 is > 40 µM (inactive).
Then `COc1cc2nc(-c3ccccc3)nc(N3CCN(c4ccc(Cl)cc4)CC3)c2cc1OC`, with > 40 µM (inactive); and `O=S(=O)(c1ccc(-c2csc(N/N=C/c3ccco3)n2)cc1)N1CCOCC1`, with > 40 µM (inactive); and `Cc1cccc(C)c1-c1nc(C(=O)N[C@@H](CC(C)C)C(=O)O)cn1-c1ccnc2cc(Cl)ccc12`, with > 40 µM (inactive).
Then `COc1cc2c3nnc(-c4ccc(Cl)cc4)c-3cn(Cc3ccc(C)cc3)c2cc1OC`, with 19.9 µM.
Then `COc1ccccc1-c1nc(C(=O)N[C@@H](CC(C)C)C(=O)O)cn1-c1ccnc2cc(Cl)ccc12`, with > 40 µM (inactive); and `CCOC(=O)c1cc(-c2c(OC)cccc2OC)n(-c2ccnc3cc(Cl)ccc23)n1`, with > 40 µM (inactive); and `COc1cccc(OC)c1-c1nc(C(=O)O)cn1-c1ccncc1`, with > 40 µM (inactive).
Regarding `COc1cc2c3nnc(-c4ccccc4)c-3cn(Cc3ccc(F)cc3)c2cc1OC`, the EC50 was > 40 µM (inactive).
In the case of `COc1cccc2c(C(=O)N[C@@H](CC(C)C)C(=O)O)cn(-c3ccnc4ccccc34)c12` it was > 40 µM (inactive).
Then `COc1cccc(OC)c1-c1nc(C(=O)N[C@@H](CC(C)C)C(=O)O)cn1-c1ccnc2ccccc12`, with > 40 µM (inactive); and `COc1cc2nc(C3CCC3)nc(N3CCN(c4ccccc4)CC3)c2cc1OC`, with > 40 µM (inactive).
In the case of `Cc1ccc(-n2ncc3c(N4CCN(c5ccc(Cl)c(Cl)c5)CC4)ncnc32)c(C)c1` it was > 40 µM (inactive); in that of `COc1ccc(/C=N/Nc2nc(-c3ccc(S(=O)(=O)N(C)C)cc3)cs2)cc1OC`, > 40 µM (inactive).
Turning to `Cc1ccc(-n2ncc3c(N4CCN(c5ccc(F)cc5)CC4)ncnc32)c(C)c1`, the EC50 was > 40 µM (inactive).
In the case of `COc1ccc(Cn2c(SCc3cccc(C(F)(F)F)c3)nc3cc(OC)c(OC)cc3c2=N)cc1Cl` it was > 40 µM (inactive); in that of `CCc1ccc(-c2nnc3c4cc(OC)c(OC)cc4n(Cc4ccccc4)cc2-3)cc1`, > 40 µM (inactive).
`COc1cc2c3nnc(-c4ccc(F)cc4)c-3cn(Cc3cccc(C)c3)c2cc1OC`: the EC50 is 4.47 µM.
In the case of `Cc1ccc(-n2ncc3c(N4CCN(c5ccccc5Cl)CC4)ncnc32)c(C)c1`, the EC50 was > 40 µM (inactive).
Then `COc1ccccc1-c1nc(C(=O)N[C@@H](CC(C)C)C(=O)O)cn1-c1ccncc1`, with > 40 µM (inactive); and `CC(C)C[C@H](NC(=O)c1nc(-c2ccnc3ccccc23)c(-c2ccccc2)s1)C(=O)O`, with > 40 µM (inactive); and `COc1cc2c3nnc(-c4ccc(C)cc4)c-3cn(Cc3ccc(C)cc3)c2cc1OC`, with 5.38 µM.
In the case of `c1ccc(Cn2cc3c(-c4ccccc4)nnc-3c3ccccc32)cc1` it was > 40 µM (inactive); in that of `Fc1ccc(-n2ncc3c(N4CCN(c5ccccc5)CC4)ncnc32)cc1`, > 40 µM (inactive); in that of `COc1cc2c3nnc(-c4ccc(F)cc4)c-3cn(Cc3ccccc3)c2cc1OC`, 6.02 µM.
Then `CCN(CC)S(=O)(=O)c1ccc(-c2csc(N/N=C/c3ccco3)n2)cc1`, with > 40 µM (inactive); and `CCOc1cc2nc(-c3ccc(OC)c(OC)c3)nc(N3CCN(c4ccccc4)CC3)c2cc1OC`, with > 40 µM (inactive).
For the compound `CN(C)S(=O)(=O)c1ccc(-c2csc(N/N=C/c3ccc(C(C)(C)C)cc3)n2)cc1`, the EC50 was > 40 µM (inactive).
Then `COc1cccc(OC)c1-c1nc(C(=O)N[C@@H](CC(C)C)C(=O)O)cn1-c1ccncc1`, with > 40 µM (inactive); and `COc1cccc(OC)c1-c1nc(C(=O)N[C@@H](CC(C)C)C(=O)O)cn1-c1ccc(C)cc1`, with > 40 µM (inactive).
Then `CCOc1ccc(-c2nnc3c4cc(OC)c(OC)cc4n(Cc4ccccc4)cc2-3)cc1`, with > 40 µM (inactive); and `CCCSc1nc2cc(OC)c(OC)cc2c(=N)n1Cc1ccccc1Cl`, with > 40 µM (inactive); and `O=C(O)c1nc(-c2ccnc3ccccc23)c(-c2ccccc2)s1`, with > 40 µM (inactive).
Then `CCOc1ccc(-c2nnc3c4cc(OC)c(OC)cc4n(Cc4ccc(F)cc4)cc2-3)cc1`, with “inactive”; and `CCCSc1nc2cc(OC)c(OC)cc2c(=N)n1Cc1cccc(C(F)(F)F)c1`, with > 40 µM (inactive).
In the case of `Cc1ccc(-n2ncc3c(N4CCN(c5ccccc5)CC4)ncnc32)cc1`, the EC50 was > 40 µM (inactive).
In the case of `Cc1ccc(-n2ncc3c(N4CCN(c5ccccc5)CC4)ncnc32)cc1C` it was > 40 µM (inactive).
Then `COc1cc2nc(-c3ccccc3)nc(N3CCN(c4ccccc4OC)CC3)c2cc1OC`, with > 40 µM (inactive).
In the case of `COc1cccc(OC)c1-c1nc(C(=O)N[C@@H](CC(C)C)C(=O)O)cn1-c1ccnc2cc(Cl)ccc12` it was > 40 µM (inactive); in that of `COc1cc2c3nnc(-c4ccc(F)cc4)c-3cn(Cc3ccc(F)cc3)c2cc1OC`, 9.69 µM.
In the case of `COc1ccc(/C=N/Nc2nc(-c3ccc(S(=O)(=O)N(C)C)cc3)cs2)cc1`, the EC50 is > 40 µM (inactive).
In the case of `COc1cc2c3nnc(-c4ccc(C)c(C)c4)c-3cn(Cc3ccc(C)cc3)c2cc1OC` it was “inactive”; in that of `COc1ccc(-c2nnc3c4cc(OC)c(OC)cc4n(Cc4ccccc4)cc2-3)cc1`, > 40 µM (inactive); in that of `COc1cc2c3nnc(-c4ccccc4)c-3cn(Cc3ccc(C)cc3)c2cc1OC`, > 40 µM (inactive).
As for `CN(C)S(=O)(=O)c1ccc(-c2csc(N/N=C/c3ccco3)n2)cc1`, the EC50 is > 40 µM (inactive).
Then `COc1cccc(OC)c1-c1nc(C(=O)NC2(C(=O)O)C3CC4CC(C3)CC2C4)cn1-c1ccnc2cc(Cl)ccc12` (stereo not drawn), with > 40 µM (inactive); and `COc1cc2nc(C3CCC3)nc(N3CCN(c4ccccc4C)CC3)c2cc1OC`, with > 40 µM (inactive).
In the case of `COc1ccc(-n2ncc3c(N4CCN(c5ccccc5)CC4)ncnc32)cc1` it was > 40 µM (inactive).
In the case of `COc1ccccc1-c1cc(C(=O)N[C@@H](CC(C)C)C(=O)OC(C)(C)C)nn1-c1ccnc2cc(Cl)ccc12` it was > 40 µM (inactive); in that of `Cc1ccc(Cn2cc3c(-c4ccc(F)cc4)nnc-3c3ccccc32)cc1`, > 40 µM (inactive).
With `COc1cc2c3nnc(-c4ccc(Cl)cc4)c-3cn(Cc3ccc(F)cc3)c2cc1OC`, the EC50 was 7.78 µM.
Consider `COc1ccc(Cn2c(SCc3ccccc3)nc3cc(OC)c(OC)cc3c2=N)cc1Cl`, for which the EC50 is > 40 µM (inactive).
Then `CCN(CC)c1ccc(/C=N/Nc2nc(-c3ccc(S(=O)(=O)N(C)C)cc3)cs2)cc1`, with > 40 µM (inactive); and `O=S(=O)(c1ccc(-c2csc(N/N=C/c3ccco3)n2)cc1)N1CCCC1`, with > 40 µM (inactive).
Then `COc1cc2nc(SCc3ccncc3)n(Cc3cccc(C(F)(F)F)c3)c(=N)c2cc1OC`, with > 40 µM (inactive).
Take `COc1ccccc1-c1cc(C(=O)N[C@@H](CC(C)C)C(=O)O)nn1-c1ccnc2cc(Cl)ccc12`: the EC50 was > 40 µM (inactive).
In the case of `COc1cc2nc(-c3ccccc3)nc(N3CCN(c4ccc(F)cc4)CC3)c2cc1OC` it was > 40 µM (inactive); in that of `COc1cccc(OC)c1-c1cc(C(=O)N[C@@H](CC(C)C)C(=O)OC(C)(C)C)nn1-c1ccnc2cc(Cl)ccc12`, > 40 µM (inactive).
In the case of `COc1ccc(N2CCN(c3nc(C4CCC4)nc4cc(OC)c(OC)cc34)CC2)cc1` it was > 40 µM (inactive); in that of `COc1cccc(N2CCN(c3ncnc4c3cnn4-c3ccc(C)cc3C)CC2)c1`, > 40 µM (inactive); in that of `COc1ccc(-c2nc(C(=O)N[C@@H](CC(C)C)C(=O)O)cn2-c2ccnc3cc(Cl)ccc23)c(OC)c1`, > 40 µM (inactive).
In the case of `COc1cc2nc(C3CCC3)nc(N3CCN(c4ccccc4Cl)CC3)c2cc1OC` it was > 40 µM (inactive); in that of `COc1cc2c3nnc(-c4ccc(C)c(C)c4)c-3cn(Cc3ccc(F)cc3)c2cc1OC`, 4.38 µM.
For the compound `COc1ccccc1-c1cc(C(=O)O)nn1-c1ccnc2cc(Cl)ccc12`, the EC50 is > 40 µM (inactive).
In the case of `CC(C)C[C@H](NC(=O)c1cn(-c2ccnc3ccccc23)c2ccccc12)C(=O)O` it was > 40 µM (inactive); in that of `COc1ccc2c(c1)c1nnc(-c3ccc(F)cc3)c-1cn2Cc1ccc(C)cc1`, > 40 µM (inactive).
As to `COc1ccccc1N1CCN(c2ncnc3c2cnn3-c2ccc(C)cc2C)CC1`, the EC50 was > 40 µM (inactive).
For `Clc1cccc(-n2ncc3c(N4CCN(c5ccccc5)CC4)ncnc32)c1`, the EC50 was > 40 µM (inactive).

The values above are taken from PubChem BioAssay AID588495 (Sanford-Burnham Center for Chemical Genomics, 2011).
